# Measured values published in paper PMC12749626, “Expediting hit-to-lead progression in drug discovery through reaction prediction and multi-dimensional optimization” (Nature Communications, 2025).
# Columns and labels:
# Details in all cases: 10 uM; n=2
# 5HT2A = 5HT2A (Homo sapiens, UniProt P28223)
# β2-ADRENOCEPTOR = β2-ADRENOCEPTOR (Homo sapiens, UniProt P07550)
# GSK-3B = GSK-3B (Homo sapiens, UniProt P49841)
# PHOSPHODIESTERASE 4D2 = PHOSPHODIESTERASE 4D2 (Homo sapiens, UniProt Q08499)
# Chain of UniProt Q08499 (Q08499 303-809): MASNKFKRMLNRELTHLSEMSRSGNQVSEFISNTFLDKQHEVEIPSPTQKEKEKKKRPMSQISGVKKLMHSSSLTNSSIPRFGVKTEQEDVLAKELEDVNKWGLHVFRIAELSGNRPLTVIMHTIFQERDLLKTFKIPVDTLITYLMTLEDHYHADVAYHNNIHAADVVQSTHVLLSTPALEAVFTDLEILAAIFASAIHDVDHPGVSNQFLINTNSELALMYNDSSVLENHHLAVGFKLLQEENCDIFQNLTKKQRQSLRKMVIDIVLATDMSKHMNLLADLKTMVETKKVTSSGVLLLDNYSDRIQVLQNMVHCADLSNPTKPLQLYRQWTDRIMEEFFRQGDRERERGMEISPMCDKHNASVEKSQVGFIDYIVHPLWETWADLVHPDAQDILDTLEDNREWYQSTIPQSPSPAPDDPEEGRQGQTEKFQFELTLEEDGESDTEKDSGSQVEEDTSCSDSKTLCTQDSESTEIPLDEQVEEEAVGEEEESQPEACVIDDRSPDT
# Chain of GSK-3B (P49841 whole entry): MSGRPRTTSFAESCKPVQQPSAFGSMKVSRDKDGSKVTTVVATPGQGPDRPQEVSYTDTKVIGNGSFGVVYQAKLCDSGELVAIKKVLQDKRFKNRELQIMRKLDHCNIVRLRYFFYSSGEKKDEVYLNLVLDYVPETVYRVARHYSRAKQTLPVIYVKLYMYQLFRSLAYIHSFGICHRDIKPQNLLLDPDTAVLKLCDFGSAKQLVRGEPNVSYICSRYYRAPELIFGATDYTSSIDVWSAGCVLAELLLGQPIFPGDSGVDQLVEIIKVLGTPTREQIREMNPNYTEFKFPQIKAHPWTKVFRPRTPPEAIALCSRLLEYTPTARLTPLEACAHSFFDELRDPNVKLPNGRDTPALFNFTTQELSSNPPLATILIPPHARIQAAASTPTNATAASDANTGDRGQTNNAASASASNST
# Chain of UniProt P07550 (P07550 whole entry): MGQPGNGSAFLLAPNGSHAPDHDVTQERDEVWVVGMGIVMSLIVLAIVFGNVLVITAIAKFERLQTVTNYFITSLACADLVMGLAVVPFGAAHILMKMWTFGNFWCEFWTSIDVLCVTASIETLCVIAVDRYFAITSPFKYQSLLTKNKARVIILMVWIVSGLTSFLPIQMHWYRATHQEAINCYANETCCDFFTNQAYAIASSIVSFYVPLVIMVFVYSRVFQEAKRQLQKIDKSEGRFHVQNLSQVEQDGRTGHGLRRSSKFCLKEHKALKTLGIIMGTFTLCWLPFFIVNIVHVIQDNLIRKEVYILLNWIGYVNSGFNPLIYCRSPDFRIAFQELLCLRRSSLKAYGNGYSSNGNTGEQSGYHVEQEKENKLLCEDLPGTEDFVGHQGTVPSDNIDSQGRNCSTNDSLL
# Chain of 5HT2A (P28223 whole entry): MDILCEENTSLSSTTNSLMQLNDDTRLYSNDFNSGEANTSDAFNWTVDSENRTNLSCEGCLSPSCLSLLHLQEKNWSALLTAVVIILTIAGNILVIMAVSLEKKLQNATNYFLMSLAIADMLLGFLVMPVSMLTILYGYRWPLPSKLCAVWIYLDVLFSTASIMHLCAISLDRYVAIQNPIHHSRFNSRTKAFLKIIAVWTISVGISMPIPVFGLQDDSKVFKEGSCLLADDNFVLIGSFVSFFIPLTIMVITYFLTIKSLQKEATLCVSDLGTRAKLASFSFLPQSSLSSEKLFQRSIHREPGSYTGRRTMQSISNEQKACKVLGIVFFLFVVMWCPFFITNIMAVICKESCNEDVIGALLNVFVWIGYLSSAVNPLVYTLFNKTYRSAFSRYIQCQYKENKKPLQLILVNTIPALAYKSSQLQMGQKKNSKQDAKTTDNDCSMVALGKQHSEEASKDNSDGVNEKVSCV
structure (smiles),measurement,setting,value
O=C(c1ccc2nc(-c3cnccc3C3(C4CCC4)CC3)oc2c1)N1CCN(c2nc3nc(Cl)ccc3o2)CC1 [Compound 27],5HT2A percent activity or inhibition compared to the assay reference,5HT2A,12%
same,β2-ADRENOCEPTOR percent activity or inhibition compared to the assay reference,β2-ADRENOCEPTOR,-2%
same,GSK-3B percent activity or inhibition compared to the assay reference,GSK-3B,-8%
same,PHOSPHODIESTERASE 4D2 percent activity or inhibition compared to the assay reference,PHOSPHODIESTERASE 4D2,-7%
